Assay [1] has as its system canine bronchoconstriction induced by U-44069. Put plainly: Protection in a drug-induced (U-44069) canine bronchospasm. Format: in vivo, mongrel dogs. Particulars: for Decrease in ability of lungs to expand easily / Increase in resistance to movement of air into the lungs: anesthetized dogs. As to the method: Bronchopulmonary responses to these agents were measured by computer analyses in 5 spontaneously breathing, anesthetized mongrel dogs. In a dose range of 0.3-3.0 μg/kg i.v., the endoperoxide analog produced dose-related alterations in pulmonary airway resistance, dynamic lung compliance, expiratory airflow rate, tidal volume and respiratory frequency. […] Inhibition by Compound I occurred in all pulmonary parameters calculated.

Assay [2] concerns isolated guinea pig lung parenchymal strips. Put plainly: Antagonism of contractions elicited by carbocyclic thromboxane A2 (CTA2), lung parenchymal strips. Particulars: for contractile response (mg tension): lung parenchyma, Compound I 1×10^-5 M, 30 min. As to the method: (§1) Isolated guinea pig tracheas or paired lung parenchymal strips were attached via silk suture to force displacement transducers for recording changes in isometric tension. The tissues were equilibrated for one hour in modified Krebs' buffer at 37.5° C. and aerated with 95% O2 /5% CO2. Then, the tissues were equilibrated for 30 additional minutes with N,N'-bis[7-(3-chlorobenzeneaminosulfonyl)-1,2,3,4-tetrahydroisoquinolyl]disulfonylimide (Compound I) (1×10^-5 M) or buffer. Contraction of the tissues was then elicited by increasing the bath concentration of CTA2 in a cumulative fashion. The contractile responses were recorded as changes in mg tension.

Assay [3] relates to isolated guinea pig tracheas. Put plainly: Antagonism of contractions elicited by carbocyclic thromboxane A2 (CTA2), trachea. Particulars: for contractile response (mg tension): trachea, Compound I 1×10^-5 M, 30 min. The procedure: as §1
Assay [4] deals with human platelet aggregation. Kind of assay: Inhibition of human platelet aggregation in platelet-rich plasma. In kind it is cell-based. As to the method:
Platelet-rich plasma (PRP) and platelet-poor plasma (PPP) are prepared from citrated blood of drug-free human volunteers and are stored at room temperature for at least 30 minutes before use. Each PRP sample is preincubated two minutes at 37° C. prior to addition of N,N-bis[7-(3-chlorobenzeneaminosulfonyl)-1,2,3,4-tetrahydroisoquinolyl]disulfonylimide (Compound I) or agonists; Compound I is preincubated for 1 minute prior to addition of agonist. A dose response is determined for each agonist, and a concentration which gives a biphasic response is selected. Compounds are tested for inhibition of the response (control response) generated by this agonist concentration. A time is selected, and the height at which the various curves intersect this time line is measured and expressed in mm (a measure of light transmittance). The difference between the response of the control and that with inhibitor present is used to calculate percent inhibition. This value is plotted against inhibitor concentrations to determine the IC50 (the inhibitory concentration of Compound I which inhibits aggregation by 50%).

Where [5] appears, read: pretreat with Compound I 5 mg/kg i.v., then U-44069 0.3 μg/kg i.v.
[6] abbreviates: pretreat with Compound I 5 mg/kg i.v., then U-44069 1.0 μg/kg i.v.
[7] abbreviates: pretreat with Compound I 5 mg/kg i.v., then U-44069 3.0 μg/kg i.v.

Experimental findings from patent US4536510A, “Method of antagonizing the effects of thromboxane” (Smith Kline Beckman Corporation, priority 1983, dated 1985) are described below.

Where two headings read alike, the source gives them in different places.

Take `CCCCC[C@H](O)/C=C/[C@H]1[C@@H]2CO[C@@H](C2)[C@@H]1C/C=C\CCCC(=O)O` [Compound U-44069, reference compound]: the “Decrease in ability of lungs to expand easily” value in assay [1] (U-44069 alone 0.3 μg/kg i.v.) is 28%; in assay [1] (U-44069 alone 1.0 μg/kg i.v.) it was 56%; in assay [1] (U-44069 alone 3.0 μg/kg i.v.), 70%. Also, the results for the “Increase in resistance to movement of air into the lungs” value in assay [1] (U-44069 alone 0.3 μg/kg i.v.), in assay [1] (U-44069 alone 1.0 μg/kg i.v.) and in assay [1] (U-44069 alone 3.0 μg/kg i.v.) were 67%, 333% and 549%, respectively.
In the case of `O=S(=O)(Nc1cccc(Cl)c1)c1ccc2c(c1)CN(S(=O)(=O)NS(=O)(=O)N1CCc3ccc(S(=O)(=O)Nc4cccc(Cl)c4)cc3C1)CC2` [Compound I, N,N'-bis[7-(3-chlorobenzeneaminosulfonyl)-1,2,3,4-tetrahydroisoquinolyl]disulfonylimide], the “Decrease in ability of lungs to expand easily” value in assay [1] (setting [5]) was found to be 5%; in assay [1] (setting [6]) it was 13%; in assay [1] (setting [7]) it was 28%. Moreover, the “Increase in resistance to movement of air into the lungs” value stood at 14% in assay [1] (setting [5]), 30% in assay [1] (setting [6]) and 56% in assay [1] (setting [7]). Moreover, the “effect on U-44069-induced bronchospasm (all pulmonary parameters)” value in assay [1] (pretreatment with Compound I 5.0 mg/kg i.v., shift to the right of the control U-44069 curve) is on record as “inhibition of the bronchospasm”. In addition, the “response to challenge with reference contractile agonist” value in assay [2] (lung parenchyma receiving Compound I, 1 × 10^-3 M histamine) is “responded normally”; in assay [3] (trachea receiving Compound I, 1 × 10^-5 M carbachol), “responded normally”. The “contractile response (mg tension)” value in assay [2] (CTA2 10^-6 M, control 181.5 ± 23.3) is on record as 0 mg tension; in assay [2] (CTA2 10^-7 M, control 103.5 ± 23.7), 0 mg tension; in assay [2] (CTA2 10^-8 M, control 45.5 ± 11.4), 0 mg tension; in assay [3] (CTA2 10^-6 M, control 360.0 ± 89.8), 42.9 ± 20.2 mg tension; in assay [3] (CTA2 10^-7 M, control 125.0 ± 33.5), 0 mg tension; in assay [3] (CTA2 10^-8 M, control 0), 0 mg tension. Besides, the IC50 in assay [4] (agonist A23187, human PRP, read-out: IC50, inhibition of secondary phase) is 12 µM; in assay [4] (agonist Platelet Activating Factor (PAF), human PRP, read-out: IC50, inhibition of secondary phase), 4.5 µM; in assay [4] (agonist U-44069, human PRP, read-out: IC50, inhibition of primary phase) it was 2.5 µM; in assay [4] (agonist U-44069, human PRP, read-out: IC50, inhibition of secondary phase), 1.7 µM; in assay [4] (agonist arachidonic acid, human PRP, read-out: IC50, inhibition of primary phase), 19 µM; in assay [4] (agonist collagen, human PRP, read-out: IC50, inhibition of primary phase) it was 10 µM.

The term IC50 denotes the concentration that gives 50% inhibition.
